Our source for the IC50 values is ChEMBL document CHEMBL5729737, “FGFR4 inhibitor, preparation method therefor, and applications thereof” (2023).

The IC50 is the point on the concentration scale where inhibition reaches its midpoint.

The target in assay [1] is Fibroblast growth factor receptor 4 (Homo sapiens, UniProt P22455). Put plainly: 5) 10 μL of EDTA and a test solution comprising labeled antibody were added, and the plate was incubated for 1 hour at room temperature. […] 7) The inhibition rates were calculated according to the fluorescence signal values.
The target of assay [2] is Fibroblast growth factor receptor 1 (Homo sapiens, UniProt P11362). The assay is described as follows: Enzymologic Experiment of FGFR1: In this experiment, the inhibitory effect of the compounds on FGFR1 kinase activity was tested by a fluorescence resonance energy transfer (TR-FRET) method, and the half maximal inhibitory concentration (IC50) of the compounds on the FGFR1 kinase activity was determined. 1) 1˜5 μL of FGFR1 enzyme solution was added to a 384-well plate, and the final concentration of the enzyme was 0.1˜5 nM. 2) 1˜5 μL of diluted solution in gradient of the compound was added. 3) 1˜5 μL of a substrate mixture containing substrate polypeptide with a final concentration of 5˜50 nM and ATP with a final concentration of 10˜200 μM was added. 4) The mixture was incubated for 0.5˜3 hours at room temperature. 5) 10 μL of EDTA and a test solution comprising labeled antibody were added, and the plate was incubated for 1 hour at room temperature. 6) The fluorescence signal values of each plate were determined by a microplate reader at 665 nm.7) The inhibition rates were calculated according to the fluorescence signal values.

Molecules are shown by their SMILES. Some results are limits rather than exact numbers.

Fibroblast growth factor receptor 1, sequence (P11362 whole entry): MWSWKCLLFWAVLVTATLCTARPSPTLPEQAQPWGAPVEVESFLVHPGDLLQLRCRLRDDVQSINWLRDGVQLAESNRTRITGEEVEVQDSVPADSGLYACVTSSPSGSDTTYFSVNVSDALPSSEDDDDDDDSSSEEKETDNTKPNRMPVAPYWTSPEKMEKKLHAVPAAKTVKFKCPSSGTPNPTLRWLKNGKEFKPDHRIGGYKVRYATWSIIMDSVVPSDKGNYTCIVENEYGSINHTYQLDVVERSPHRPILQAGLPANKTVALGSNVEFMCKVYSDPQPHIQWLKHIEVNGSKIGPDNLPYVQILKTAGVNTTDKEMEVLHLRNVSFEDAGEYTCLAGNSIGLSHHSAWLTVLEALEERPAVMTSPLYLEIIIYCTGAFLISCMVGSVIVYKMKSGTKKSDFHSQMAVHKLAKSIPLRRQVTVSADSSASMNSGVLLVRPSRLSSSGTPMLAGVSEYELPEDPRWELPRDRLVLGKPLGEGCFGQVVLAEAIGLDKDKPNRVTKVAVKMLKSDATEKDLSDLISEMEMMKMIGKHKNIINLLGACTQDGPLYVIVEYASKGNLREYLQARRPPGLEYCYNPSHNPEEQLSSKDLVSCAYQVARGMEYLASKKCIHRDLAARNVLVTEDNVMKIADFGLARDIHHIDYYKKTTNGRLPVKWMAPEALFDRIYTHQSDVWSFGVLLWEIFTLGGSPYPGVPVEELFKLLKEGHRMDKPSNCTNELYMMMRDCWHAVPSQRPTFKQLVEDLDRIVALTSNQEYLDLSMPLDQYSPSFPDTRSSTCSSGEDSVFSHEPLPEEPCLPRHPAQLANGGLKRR
Fibroblast growth factor receptor 4, sequence (P22455 whole entry): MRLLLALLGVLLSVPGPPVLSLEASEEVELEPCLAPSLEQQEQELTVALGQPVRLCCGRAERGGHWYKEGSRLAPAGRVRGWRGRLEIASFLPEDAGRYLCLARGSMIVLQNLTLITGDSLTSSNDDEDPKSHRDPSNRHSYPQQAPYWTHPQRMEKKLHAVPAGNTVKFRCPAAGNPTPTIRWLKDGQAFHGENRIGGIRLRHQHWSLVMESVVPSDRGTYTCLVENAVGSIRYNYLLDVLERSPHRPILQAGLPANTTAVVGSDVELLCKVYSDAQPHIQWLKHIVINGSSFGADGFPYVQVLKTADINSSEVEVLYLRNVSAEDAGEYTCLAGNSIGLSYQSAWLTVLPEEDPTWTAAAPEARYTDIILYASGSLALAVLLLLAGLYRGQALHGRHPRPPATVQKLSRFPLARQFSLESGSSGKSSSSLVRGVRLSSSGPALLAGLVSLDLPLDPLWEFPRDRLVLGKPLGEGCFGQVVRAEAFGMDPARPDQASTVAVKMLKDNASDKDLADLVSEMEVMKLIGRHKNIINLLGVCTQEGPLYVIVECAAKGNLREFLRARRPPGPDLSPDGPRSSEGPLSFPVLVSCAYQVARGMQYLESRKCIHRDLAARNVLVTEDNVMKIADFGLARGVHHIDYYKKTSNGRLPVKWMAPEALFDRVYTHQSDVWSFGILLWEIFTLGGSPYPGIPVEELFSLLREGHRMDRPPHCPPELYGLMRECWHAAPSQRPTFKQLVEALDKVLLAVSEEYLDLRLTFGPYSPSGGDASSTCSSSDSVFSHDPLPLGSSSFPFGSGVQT

Regarding `COC[C@@H](C)Nc1cc(NC(=O)N2CCCc3cc(CN4CCCCOC4=O)c(C=O)nc32)ncc1C#N`, the IC50 in assay [1] is 0.00096 µM. With `CO[C@@H]1CCCC1Nc1cc(NC(=O)N2CCCc3cc(CN4CCOCC4=O)c(C=O)nc32)ncc1C#N` (stereo partly drawn), in assay [2], the IC50 was over 10 µM. As for `COCCNc1cc(NC(=O)N2CCCc3cc(CN4CCCCOC4=O)c(C=O)nc32)ncc1C#N`, the IC50 in assay [2] was over 10 µM.
